PMC11671526, “β-caryophyllene sensitizes hepatocellular carcinoma cells to chemotherapeutics and inhibits cell malignancy through targeting MAPK signaling pathway” (Frontiers in Pharmacology, 2024)

Tested on: HepG2 cells
Test: RNA-seq transcriptome analysis of differentially expressed genes
Assay type: cell-based, human
Conditions: BCP vs control HepG2
Protocol: The quality and concentration of RNA were examined by MOPS RNA electrophoresis and Eppendorf BioSpectrometer. The transcriptome analysis was performed by BGI-Wuhan China. The RNA-seq dataset of this study is accessible in the Gene Expression Omnibus (GEO) with an access number of GSE276099. The sequence library for each sample was prepared using the BGISEQ-500 platform with a 50-bp single-end (SE50) format. […]2.2.1) was used to align the clean reads to the reference genome and alignment of the clean reads to the reference genes was carried out using Bowtie2 (v2.4.5) ([Langmead and Salzberg, 2012]; [Kim et al., 2015]). Gene expression levels were calculated by RSEM (v1.3.1) ([Li and Dewey, 2011]). Analysis of differential gene expression was performed using edgeR in the Bioconductor software package ([Robinson et al., 2010]). Using a standard protocol, the RNA samples were also examined by reverse transcription and quantitative polymerase chain reaction (RT-qPCR). In brief, for reverse transcription, total RNA (1 μg) and gDNA wiper Mix were incubated at 42°C for 2 min. The samples were immediately incubated with a master mix containing 10 pmol/μL of poly (dT) primers at 37°C for 15 min and 85°C for 5 s. To detect the expression of specific genes by qPCR analysis, gene-specific primers (shown in Supplementary Table S1) were mixed with the ChamQ Universal SYBER qPCR Master Mix and the reaction was conducted using the Roche Lightcycler 480. The GAPDH value was used to normalize the results of each gene. The RNA-seq data of BCP-treated HepG2 cells were screened for DEGs. Gene symbols were turned into Enterz ID using the org.Hs.eg.db Bio-conductor R package. The cluster profiler (v4.6.2) package was used to perform the Kyoto Encyclopedia of Genes and Genomes (KEGG) and Gene Ontology (GO) enrichment analyses ([Wu et al., 2021]). Following the Transcript per million (TPM) data of the dataset, the line chart, and heatmap were plotted using ggplot2 and pheatmap R packages, respectively.

SMILES: C=C1CC/C=C(\C)CC[C@@H]2[C@@H]1CC2(C)C [BCP, β-caryophyllene]
- change EGLN3 (gene EGLN3, DEG direction): Down
- logFC EHF (gene EHF, RNA-seq): -2.096
- change EHF (gene EHF, DEG direction): Down
- logFC EPHX1 (gene EPHX1, RNA-seq): -0.6153
- change EPHX1 (gene EPHX1, DEG direction): Down
- logFC ETNPPL (gene ETNPPL, RNA-seq): -2.349
- change ETNPPL (gene ETNPPL, DEG direction): Down
- logFC EVA1A (gene EVA1A, RNA-seq): -3.085
- change EVA1A (gene EVA1A, DEG direction): Down
- logFC F2RL1 (gene F2RL1, RNA-seq): -0.7544
- change F2RL1 (gene F2RL1, DEG direction): Down
- logFC FAH (gene FAH, RNA-seq): 0.7875
- change FAH (gene FAH, DEG direction): Up
- logFC FAM13C (gene FAM13C, RNA-seq): 0.699
- change FAM13C (gene FAM13C, DEG direction): Up
- logFC FAM72C (gene FAM72C, RNA-seq): 1.971
- change FAM72C (gene FAM72C, DEG direction): Up
- logFC FBXO2 (gene FBXO2, RNA-seq): -0.7473
- change FBXO2 (gene FBXO2, DEG direction): Down
- logFC FBXO27 (gene FBXO27, RNA-seq): -1.235
- change FBXO27 (gene FBXO27, DEG direction): Down
- logFC FBXO44 (gene FBXO44, RNA-seq): -0.6394
- change FBXO44 (gene FBXO44, DEG direction): Down
- logFC FGFBP1 (gene FGFBP1, RNA-seq): -1.07
- change FGFBP1 (gene FGFBP1, DEG direction): Down
- logFC FRMD3 (gene FRMD3, RNA-seq): -1.073
- change FRMD3 (gene FRMD3, DEG direction): Down
- logFC FZD4 (gene FZD4, RNA-seq): -0.6196
- change FZD4 (gene FZD4, DEG direction): Down
- logFC GALNT13 (gene GALNT13, RNA-seq): 1.877
- change GALNT13 (gene GALNT13, DEG direction): Up
- logFC GALNTL6 (gene GALNTL6, RNA-seq): 1.303
- change GALNTL6 (gene GALNTL6, DEG direction): Up
- logFC GBP2 (gene GBP2, RNA-seq): -1.229
- change GBP2 (gene GBP2, DEG direction): Down
- logFC GIPR (gene GIPR, RNA-seq): -0.7811
- change GIPR (gene GIPR, DEG direction): Down
- logFC GJB5 (gene GJB5, RNA-seq): -0.706
- change GJB5 (gene GJB5, DEG direction): Down
- logFC GLIS3 (gene GLIS3, RNA-seq): 0.614
- change GLIS3 (gene GLIS3, DEG direction): Up
- logFC GNAZ (gene GNAZ, RNA-seq): -0.722
- change GNAZ (gene GNAZ, DEG direction): Down
- logFC GOLGA6L10 (gene GOLGA6L10, RNA-seq): 2.939
- change GOLGA6L10 (gene GOLGA6L10, DEG direction): Up
- logFC GPER1 (gene GPER1, RNA-seq): -0.7995
- change GPER1 (gene GPER1, DEG direction): Down
- logFC GPNMB (gene GPNMB, RNA-seq): 0.8482
- change GPNMB (gene GPNMB, DEG direction): Up
- logFC GSDME (gene GSDME, RNA-seq): 0.7468
- change GSDME (gene GSDME, DEG direction): Up
- logFC H1-2 (gene H1-2, RNA-seq): -0.7028
- change H1-2 (gene H1-2, DEG direction): Down
- logFC H2AC6 (gene H2AC6, RNA-seq): -0.6896
- change H2AC6 (gene H2AC6, DEG direction): Down
- logFC H2AC18 (gene H2AC18, RNA-seq): -0.6059
- change H2AC18 (gene H2AC18, DEG direction): Down
- logFC H2BC5 (gene H2BC5, RNA-seq): -0.8919
- change H2BC5 (gene H2BC5, DEG direction): Down
- logFC H2BC11 (gene H2BC11, RNA-seq): -0.8769
- change H2BC11 (gene H2BC11, DEG direction): Down
- logFC H2BC12 (gene H2BC12, RNA-seq): -0.7141
- change H2BC12 (gene H2BC12, DEG direction): Down
- logFC H2BC21 (gene H2BC21, RNA-seq): -0.7522
- change H2BC21 (gene H2BC21, DEG direction): Down
- logFC H3C14 (gene H3C14, RNA-seq): -8.816
- change H3C14 (gene H3C14, DEG direction): Down
- logFC H3C15 (gene H3C15, RNA-seq): 8.416
- change H3C15 (gene H3C15, DEG direction): Up
- logFC HHLA2 (gene HHLA2, RNA-seq): -1.815
- change HHLA2 (gene HHLA2, DEG direction): Down
- logFC HIC1 (gene HIC1, RNA-seq): -1.286
- change HIC1 (gene HIC1, DEG direction): Down
- logFC HID1 (gene HID1, RNA-seq): -3.326
- change HID1 (gene HID1, DEG direction): Down
- logFC HJURP (gene HJURP, RNA-seq): 0.601
- change HJURP (gene HJURP, DEG direction): Up
- logFC HK1 (gene HK1, RNA-seq): -0.5879
- change HK1 (gene HK1, DEG direction): Down
- logFC HMG20B (gene HMG20B, RNA-seq): 0.778
- change HMG20B (gene HMG20B, DEG direction): Up
- logFC HMMR (gene HMMR, RNA-seq): 0.8153
- change HMMR (gene HMMR, DEG direction): Up
- logFC HPDL (gene HPDL, RNA-seq): -0.6564
- change HPDL (gene HPDL, DEG direction): Down
- logFC HSPA5 (gene HSPA5, RNA-seq): 0.6968
- change HSPA5 (gene HSPA5, DEG direction): Up
- logFC IFI35 (gene IFI35, RNA-seq): 0.5837
- change IFI35 (gene IFI35, DEG direction): Up
- logFC IFITM1 (gene IFITM1, RNA-seq): -1.457
- change IFITM1 (gene IFITM1, DEG direction): Down
- logFC IL34 (gene IL34, RNA-seq): -0.7177
- change IL34 (gene IL34, DEG direction): Down
- logFC IQGAP3 (gene IQGAP3, RNA-seq): 0.8425
- change IQGAP3 (gene IQGAP3, DEG direction): Up
- logFC ITPR1 (gene ITPR1, RNA-seq): 0.8272
- change ITPR1 (gene ITPR1, DEG direction): Up
- logFC KCNH3 (gene KCNH3, RNA-seq): -0.6893
- change KCNH3 (gene KCNH3, DEG direction): Down
- logFC KCNJ18 (gene KCNJ18, RNA-seq): 0.8616
- change KCNJ18 (gene KCNJ18, DEG direction): Up
- logFC KCNK3 (gene KCNK3, RNA-seq): -0.6699
- change KCNK3 (gene KCNK3, DEG direction): Down
- logFC KIAA1614 (gene KIAA1614, RNA-seq): 0.6603
- change KIAA1614 (gene KIAA1614, DEG direction): Up
- logFC KLHDC7B (gene KLHDC7B, RNA-seq): 0.8443
- change KLHDC7B (gene KLHDC7B, DEG direction): Up
- logFC KLRG1 (gene KLRG1, RNA-seq): -1.335
- change KLRG1 (gene KLRG1, DEG direction): Down
- logFC LCK (gene LCK, RNA-seq): -3.081
- change LCK (gene LCK, DEG direction): Down
- logFC LFNG (gene LFNG, RNA-seq): -0.7084
- change LFNG (gene LFNG, DEG direction): Down
- logFC LHFPL2 (gene LHFPL2, RNA-seq): -0.5801
- change LHFPL2 (gene LHFPL2, DEG direction): Down
- logFC LIMS3 (gene LIMS3, RNA-seq): 8.319
- change LIMS3 (gene LIMS3, DEG direction): Up
